Source: patent publication US9315513B2, “Benzimidazole derivatives and their pharmaceutical compositions and uses” (XUANZHU PHARMA CO., LTD., priority 2010, dated 2016)
Values joined by “and” are separate entries in the source; they are usually repeats but may differ in a detail not shown here. Equal values may be shown once. Where a name gives a salt, the structure may show the parent alone. Read-outs that look alike come from different tables or passages of the source.

How the values were obtained:
[1] = system: gastric acid in pylorus ligated rats; assay: Inhibition effects on gastric acid in pylorus ligated rats; format: in vivo, Wistar rats
Experimental: Experimental animals: six-week old clean Wistar rats, male, 140-180 g.
Experimental samples: part of the compounds of the present invention, which structural formula and chemical name are shown in Table 1. […] Before test, these compounds were dissolved with physiological saline.
Pylorus was ligated by passing a suture beneath gastric pylorus, the drugs were immediately administered through duodenum, in which the solvent group was administered with physiological saline in 2 mL/kg, […] The animals were executed after 6 h, laparotomized, esophagus was ligated near to diaphragmatic muscle, whole stomach was taken out, washed to remove blood, stomach contents were poured out, the acidity degree of gastric acid was tested with pH test paper, the stomach contents was then centrifuged at 3000 rpm for 10 min. The volume of the supernatant was metered, and 1 mL of the supernatant was titrated with 0.01 mol/L NaOH solution, phenolphthalein was used as indicator, the volume of NaOH was recorded, and the total acidity degree and total acid output of gastric juice were calculated. Gastric juice total acidity degree (mmol/L)=consumed volume of NaOH solution (mL)*0.01 mol/L (NaOH concentration)/1 mL (supernatant volume)*1000; 1 h total acid output (mmol/h)=total acidity degree (mmol/L)*gastric juice volume (mL)/6 h/1000.

[2] = In vivo pharmacokinetic test in rats; set-up: species or system Wistar rats; conditions: for clearance / half-life / Vd: iv; for In vivo pharmacokinetic properties (conclusion): Tables 8 and 9
Experimental: Experimental animals: male Wistar rats, 6 rats/compound, body weight 180-220 g, purchased from Shandong University, certificate no.: SCXK ( ? ) 20090001.
Experimental samples: Compound 1, Compound 29 and Compound 30 of the present invention, each of them is prepared according to the methods of the above examples, and dissolved in physiological saline before test.
Administration: as for intravenous push (I.V), Compound 1, Compound 29, Compound 30 were administered in a dose of 5 mg/kg, and a volume of 2 mL/kg; as for intragastric administration (P.O), Compound 1, Compound 29, Compound 30 were administered in a dose of 5 mg/kg, and a volume of 2 mL/kg. The rats were fasted without water deprivation for […] administration, and fed after 4 hours from the administration.
Blood collection: 0 h, 0.083 h, 0.25 h, 0.5 h, 1 h, 2 h, 4 h, 8 h, 24 h, at each time point, about 150 μL of whole blood was collected, centrifuged at 4° C. and 8000 rpm for 6 min using a low-temperature high-speed centrifuge, the separated plasma was frozen and stored at −80° C. in a refrigerator.
Analysis of plasma samples: as for Compound 1, Compound 29, Compound 30, 50 μL of plasma was taken, added with 120 μL internal standard solution (Tolbutamide, 5 ng/mL MeOH solution), subjected to 1500 rpm vortex for 2 min, then centrifuged at 14000 rpm for 5 min, the supernatant was collected, and analyzed by using LC-MS/MS. Calculation formula: absolute bioavailability F %=[AUC]INF(PO)*Dose(IV)/[AUC]INF(IV)*Dose(PO)
Wherein, AUCINF represents area under drug-time curve0→∞; Cmax represents peak drug concentration in blood; Tmax represents a time for reaching peak drug concentration in blood; F % represents absolute bioavailability; CL represents clearance rate; Vss represents apparent volume of distribution; T1/2 represents half-life period.

[3] = system: reflux esophagitis in rats; assay: Effects on reflux esophagitis in rats; format: in vivo, Wistar rats; set-up: Esophagitis index: scale not given here
Experimental: The rats were etherized, laparotomized, pylorus ligated, and ligated at the part between glandular stomach and rumen. After ligation, the drugs were immediately administered through duodenum, in which the groups of the test samples were administered with test samples in 20 mg/kg, the model group was administered with the same volume of solvent, and the abdomens were then closed. The rats were released to the fasting cage, subjected to fasting and water deprivation for 5 h and then executed by air embolism. The stomach and esophagus were taken out together, fixed with 1% formaldehyde in esophagus for 1 h, and then the injury of esophagus was observed.

gastric acid secretion = conditions: cited from earlier work
gastric acid = conditions: cited from earlier work
[4] = Table 4, 30 mg/kg through duodenum, 6 h
[5] = Table 4, 30 mg/kg through duodenum, 6 h, SD in neighbouring cell
[6] = male, Wistar, rat, in vivo, 5 mg/kg
[7] = male, Wistar, rat, in vivo, po, 5 mg/kg

## COCCCOc1ccnc(C[S@+]([O-])c2nc3cc4c(cc3[nH]2)OCC4)c1C [Compound 29, (S)-2-[[[4-(3-methoxylpropoxy)-3-methyl-2-pyridyl]methyl]sulfinyl]-6,7-dihydro-3H-benzofuro[5,6-d]imidazole]
[1]; [4]
  Gastric juice volume: 3.43 ± 1.11 mL
  Volume of supernatant of gastric juice: 2.70 ± 1.04 mL
[1]; [5]
  Acidity degree (pH value): 3.75 pH value
  Total acid output: 0.0178 mmol/h
  Total acidity degree: 37.85 mmol/L
[2]; male, Wistar, rat, in vivo, rats, I.V, 5 mg/kg, read-out: CL (converted)
  clearance: 21.4 mL/min/kg
[2]; male, Wistar, rat, in vivo, rats, I.V, 5 mg/kg, read-out: T½ (converted)
  half-life: 13.4 min
[2]; male, Wistar, rat, in vivo, rats, I.V, 5 mg/kg, read-out: Vss
  Vd: 0.289 L/kg
[2]; male, Wistar, rat, in vivo, po, rats, P.O 5 mg/kg vs I.V 5 mg/kg, read-out: F % (absolute bioavailability)
  bioavailability: 49.2%
[2]; male, Wistar, rat, in vivo, po, rats, P.O, 5 mg/kg, read-out: AUCinf
  AUC(0-inf): 1740 ng·h/mL
[2]; male, Wistar, rat, in vivo, po, rats, P.O, 5 mg/kg, read-out: Cmax
  Cmax: 5780 ng/mL
[2]; male, Wistar, rat, in vivo, po, rats, P.O, 5 mg/kg, read-out: Tmax
  Tmax: 4.98 min
[2]; rats, P.O, 5 mg/kg
  apparent oral clearance (CL/F): 3.226 L/kg/h
[2]; rats
  In vivo pharmacokinetic properties (conclusion): good in vivo pharmacokinetic properties

## COCCCOc1ccnc(C[S@@+]([O-])c2nc3cc4c(cc3[nH]2)OCC4)c1C [Compound 30 (sodium salt), (R)-2-[[[4-(3-methoxylpropoxy)-3-methyl-2-pyridyl]methyl]sulfinyl]-6,7-dihydro-3H-benzofuro[5,6-d]imidazole sodium]
[1]; [4]
  Gastric juice volume: 3.60 ± 1.30 mL
  Volume of supernatant of gastric juice: 2.87 ± 1.17 mL
[1]; [5]
  Acidity degree (pH value): 6.08 pH value
  Total acid output: 0.0076 mmol/h
  Total acidity degree: 17.21 mmol/L
[2]; [6]
  Vd: 0.394 L/kg
  clearance: 26.5 mL/min/kg
  half-life: 16.5 min
[2]; [7]
  AUC(0-inf): 1260 ng·h/mL
  CL: 5.01 L/kg/h
  Cmax: 3250 ng/mL
  Tmax: 4.98 to 15 min
  bioavailability: 39.3%

## COCCCOc1ccnc(C[S@@+]([O-])c2nc3cc4c(cc3[nH]2)OCC4)c1C [Compound 30, (R)-2-[[[4-(3-methoxylpropoxy)-3-methyl-2-pyridyl]methyl]sulfinyl]-6,7-dihydro-3H-benzofuro[5,6-d]imidazole]
[2]; rats
  In vivo pharmacokinetic properties (conclusion): good in vivo pharmacokinetic properties

## COc1c(C)cnc(C[S+]([O-])c2nc3cc4c(cc3[nH]2)OCO4)c1C (stereo not shown) [Compound 81, reference compound]
[1]; Table 5, 20 mg/kg, comparison with Compound 81 as control
  Total acidity degree: 71.27 ± 16.51 mmol/L
[3]; 20 mg/kg through duodenum, 5 h, 6 rats per group, average ± SD
  Esophagitis index: 0.83 ± 1.60
[3]; 20 mg/kg, in comparison with the model group
  Protection effect on reflux esophagitis in rats (conclusion): no protection effect
[3]; individual rats, 20 mg/kg through duodenum, 5 h, 20 mg/kg
  Injury status: Normal
[3]; individual rats, 20 mg/kg through duodenum, 5 h, 20 mg/kg, female rats
  Esophagus injury score: 0 (2×) and 1 (1 score for injury area of 1-25%)
[3]; individual rats, 20 mg/kg through duodenum, 5 h, 20 mg/kg, male rats
  Esophagus injury score: 4 (4 scores for injury area exceeding 75% or perforation) and 0 (2×)

## COCCCOc1ccnc(C[S+]([O-])c2nc3ccccc3[nH]2)c1C (stereo not shown) [Rabeprazole]
Gastric acid secretion
  Activity against gastric acid secretion in vitro relative to Omeprazole: 2-10 times
Gastric acid
  Time to achieve the maximum acid inhibition effect: ≤ 5 min
Gastric acid; compared with Omeprazole
  Duration of action: shorter than that of Omeprazole
